From US10597388B2, “Pyridazinone herbicides” (FMC CORPORATION, priority 2014, dated 2020)

Columns and labels:
Assay in all cases: Test C greenhouse herbicide test, pre- and postemergence
Assay type in all cases: in vivo
[1] = tested on: ragweed (common ragweed, Ambrosia elatior)
How it was run: (§1)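 Each species was treated both before emergence, in a loam–sand soil mix, and after emergence, as 1- to 4-leaf seedlings in peat-based potting medium. Plants stayed in the greenhouse 13 to 15 d, then were scored from 0 (no effect) to 100 (complete control) relative to controls.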

[2] = tested on: pigweed (Amaranthus retroflexus)
How it was run: as §1

[3] = tested on: blackgrass (Alopecurus myosuroides)
How it was run: as §1

[4] = tested on: barnyardgrass (Echinochloa crus-galli)
How it was run: as §1

[5] = tested on: waterhemp (common waterhemp, Amaranthus rudis)
How it was run: as §1

[6] = tested on: ryegrass, Italian (Italian ryegrass, Lolium multiflorum)
How it was run: as §1

[7] = tested on: foxtail, giant (giant foxtail, Setaria faberii)
How it was run: as §1

[8] = tested on: nutsedge, yellow (yellow nutsedge, Cyperus esculentus)
How it was run: as §1

[9] = tested on: velvetleaf (Abutilon theophrasti)
How it was run: as §1

[10] = tested on: crabgrass, large (large crabgrass, Digitaria sanguinalis)
How it was run: as §1

[11] = tested on: corn (Zea mays)
How it was run: as §1

[12] = tested on: oilseed rape (Brassica napus)
How it was run: as §1

[13] = tested on: johnsongrass (Sorghum halepense)
How it was run: as §1

[14] = tested on: lambsquarters (Chenopodium album)
How it was run: as §1

[15] = tested on: morningglory (Ipomoea coccinea)
How it was run: as §1

[16] = tested on: galium (catchweed bedstraw, Galium aparine)
How it was run: as §1

[17] = Postemergence, 31 g ai/ha, scale 0 to 100 (0 no effect, 100 complete control)
[18] = Postemergence, 62 g ai/ha, 0 to 100 scale (0 no effect, 100 complete control)
[19] = Postemergence, 250 g ai/ha, scale 0 to 100, 0 no effect, 100 complete control, 13 to 15 d
[20] = postemergence, 125 g ai/ha, scale 0 to 100, 0 no effect, 100 complete control
[21] = Postemergence, 125 g ai/ha, scale 0 to 100, 0 is no effect, 100 is complete control
[22] = Postemergence, 16 g ai/ha, scale 0 to 100 (0 no effect, 100 complete control)
[23] = Postemergence, 31 g ai/ha, 0 to 100 scale (0 no effect, 100 complete control)
[24] = postemergence, 62 g ai/ha, scale 0 to 100, 0 no effect, 100 complete control

Question: For `Cc1nn(C)c(=O)c(-c2cccc3ccc(C#N)cc23)c1O` [Compound 127], which “Plant response rating, Ragweed” value [1, 17] is on record?
Answer: 10

Question: And the “Ragweed plant response rating” value [1, 18]?
Answer: 55

Question: What about the “Plant response rating, Ragweed” value [1, 19] of the same molecule?
Answer: 90

Question: And the “Ragweed plant response rating” value [1, 20]?
Answer: 60

Question: And the “Plant response rating, Pigweed” value [2, 17]?
Answer: 70

Question: What about the “Pigweed plant response rating” value [2, 18] of the same molecule?
Answer: 85

Question: And the “Plant response rating, Pigweed” value [2, 19]?
Answer: 95

Question: What about the “Pigweed plant response rating” value [2, 20] of the same molecule?
Answer: 90

Question: What about the “Plant response rating, Blackgrass” value [3, 17] of the same molecule?
Answer: 0

Question: And the “Blackgrass plant response rating” value [3, 18]?
Answer: 5

Question: And the “Plant response rating, Blackgrass” value [3, 19]?
Answer: 35

Question: What about the “Blackgrass plant response rating” value [3, 20] of the same molecule?
Answer: 5

Question: And the “Plant response rating, Barnyardgrass” value [4, 17]?
Answer: 10

Question: And the “Barnyardgrass plant response rating” value [4, 18]?
Answer: 20

Question: What about the “Plant response rating, Barnyardgrass” value [4, 21] of the same molecule?
Answer: 25

Question: What about the “Plant response rating, Barnyardgrass” value [4, 19] of the same molecule?
Answer: 25

Question: What about the “Plant response rating, Waterhemp” value [5, 17] of the same molecule?
Answer: 70

Question: And the “Waterhemp plant response rating” value [5, 18]?
Answer: 85

Question: What about the “Plant response rating, Waterhemp” value [5, 19] of the same molecule?
Answer: 95

Question: And the “Waterhemp plant response rating” value [5, 20]?
Answer: 85

Question: What about the “Plant response rating, Ryegrass, Italian” value [6, 17] of the same molecule?
Answer: 50

Question: And the “Ryegrass, Italian plant response rating” value [6, 18]?
Answer: 75

Question: What about the “Plant response rating, Ryegrass, Italian” value [6, 19] of the same molecule?
Answer: 90

Question: And the “Ryegrass, Italian plant response rating” value [6, 20]?
Answer: 80

Question: And the “Plant response rating, Foxtail, Giant” value [7, 17]?
Answer: 5

Question: What about the “Foxtail, Giant plant response rating” value [7, 18] of the same molecule?
Answer: 5

Question: And the “Plant response rating, Foxtail, Giant” value [7, 19]?
Answer: 40

Question: What about the “Foxtail, Giant plant response rating” value [7, 20] of the same molecule?
Answer: 25

Question: What about the “Plant response rating, Nutsedge, Yellow” value [8, 17] of the same molecule?
Answer: 10

Question: And the “Nutsedge, Yellow plant response rating” value [8, 18]?
Answer: 35

Question: What about the “Plant response rating, Nutsedge, Yellow” value [8, 19] of the same molecule?
Answer: 70

Question: And the “Nutsedge, Yellow plant response rating” value [8, 20]?
Answer: 60

Question: And the “Plant response rating, Velvetleaf” value [9, 17]?
Answer: 20

Question: And the “Velvetleaf plant response rating” value [9, 18]?
Answer: 30

Question: What about the “Plant response rating, Velvetleaf” value [9, 19] of the same molecule?
Answer: 55

Question: What about the “Velvetleaf plant response rating” value [9, 20] of the same molecule?
Answer: 25

Question: And the “Plant response rating, Crabgrass, Large” value [10, 17]?
Answer: 0

Question: What about the “Crabgrass, Large plant response rating” value [10, 18] of the same molecule?
Answer: 5

Question: What about the “Plant response rating, Crabgrass, Large” value [10, 19] of the same molecule?
Answer: 25

Question: What about the “Crabgrass, Large plant response rating” value [10, 20] of the same molecule?
Answer: 10

Question: And the “Plant response rating, Corn” value [11, 17]?
Answer: 0

Question: What about the “Corn plant response rating” value [11, 18] of the same molecule?
Answer: 0

Question: And the “Plant response rating, Corn” value [11, 19]?
Answer: 10

Question: What about the “Corn plant response rating” value [11, 20] of the same molecule?
Answer: 5

Question: What about the “Plant response rating, Oilseed Rape” value [12, 17] of the same molecule?
Answer: 0

Question: And the “Oilseed Rape plant response rating” value [12, 18]?
Answer: 0

Question: What about the “Plant response rating, Oilseed Rape” value [12, 19] of the same molecule?
Answer: 100

Question: What about the “Oilseed Rape plant response rating” value [12, 20] of the same molecule?
Answer: 25

Question: What about the “Plant response rating, Johnsongrass” value [13, 17] of the same molecule?
Answer: 5

Question: And the “Johnsongrass plant response rating” value [13, 18]?
Answer: 5

Question: What about the “Plant response rating, Johnsongrass” value [13, 19] of the same molecule?
Answer: 15

Question: And the “Johnsongrass plant response rating” value [13, 20]?
Answer: 10

Question: And the “Plant response rating, Lambsquarters” value [14, 17]?
Answer: 70

Question: And the “Lambsquarters plant response rating” value [14, 18]?
Answer: 80

Question: What about the “Plant response rating, Lambsquarters” value [14, 19] of the same molecule?
Answer: 98

Question: And the “Lambsquarters plant response rating” value [14, 20]?
Answer: 85

Question: What about the “Plant response rating, Morningglory” value [15, 17] of the same molecule?
Answer: 65

Question: What about the “Morningglory plant response rating” value [15, 18] of the same molecule?
Answer: 75

Question: What about the “Plant response rating, Morningglory” value [15, 19] of the same molecule?
Answer: 98

Question: And the “Morningglory plant response rating” value [15, 20]?
Answer: 85

Question: And the “Plant response rating, Galium” value [16, 17]?
Answer: 75

Question: And the “Galium plant response rating” value [16, 18]?
Answer: 80

Question: What about the “Plant response rating, Galium” value [16, 19] of the same molecule?
Answer: 90

Question: And the “Galium plant response rating” value [16, 20]?
Answer: 85

Question: Which results are given for `COc1ccc2ccccc2c1-c1c(O)c(C)nn(C)c1=O` [Compound 40]?
Answer: Plant response rating, Ragweed [1, 22]: 25; Ragweed plant response rating [1, 23]: 45; Plant response rating, Ragweed [1, 21]: 85; Ragweed plant response rating [1, 24]: 75; Plant response rating, Pigweed [2, 22]: 15; Pigweed plant response rating [2, 23]: 35; Plant response rating, Pigweed [2, 21]: 85; Pigweed plant response rating [2, 24]: 65; Plant response rating, Blackgrass [3, 22]: 5; Blackgrass plant response rating [3, 23]: 5; Plant response rating, Blackgrass [3, 21]: 45; Blackgrass plant response rating [3, 24]: 15; Plant response rating, Barnyardgrass [4, 22]: 5; Barnyardgrass plant response rating [4, 23]: 5; Plant response rating, Barnyardgrass [4, 21]: 25; Barnyardgrass plant response rating [4, 24]: 15; Plant response rating, Waterhemp [5, 22]: 20; Waterhemp plant response rating [5, 23]: 65; Plant response rating, Waterhemp [5, 21]: 80; Waterhemp plant response rating [5, 24]: 65; Plant response rating, Ryegrass, Italian [6, 22]: 10; Ryegrass, Italian plant response rating [6, 23]: 50; Plant response rating, Ryegrass, Italian [6, 21]: 80; Ryegrass, Italian plant response rating [6, 24]: 65; Plant response rating, Foxtail, Giant [7, 22]: 5; Foxtail, Giant plant response rating [7, 23]: 5; Plant response rating, Foxtail, Giant [7, 21]: 20; Foxtail, Giant plant response rating [7, 24]: 15; Plant response rating, Nutsedge, Yellow [8, 22]: 0; Nutsedge, Yellow plant response rating [8, 23]: 0; Plant response rating, Nutsedge, Yellow [8, 21]: 20; Nutsedge, Yellow plant response rating [8, 24]: 15; Plant response rating, Velvetleaf [9, 22]: 5; Velvetleaf plant response rating [9, 23]: 5; Plant response rating, Velvetleaf [9, 21]: 20; Velvetleaf plant response rating [9, 24]: 10; Plant response rating, Crabgrass, Large [10, 22]: 5; Crabgrass, Large plant response rating [10, 23]: 5; Plant response rating, Crabgrass, Large [10, 21]: 10; Crabgrass, Large plant response rating [10, 24]: 5; Plant response rating, Corn [11, 22]: 0; Corn plant response rating [11, 23]: 0; Plant response rating, Corn [11, 21]: 20; Corn plant response rating [11, 24]: 0; Plant response rating, Oilseed Rape [12, 22]: 0; Oilseed Rape plant response rating [12, 23]: 5; Plant response rating, Oilseed Rape [12, 21]: 5; Oilseed Rape plant response rating [12, 24]: 30; Plant response rating, Johnsongrass [13, 22]: 0; Johnsongrass plant response rating [13, 23]: 0; Plant response rating, Johnsongrass [13, 21]: 5; Johnsongrass plant response rating [13, 24]: 5; Plant response rating, Lambsquarters [14, 22]: 50; Lambsquarters plant response rating [14, 23]: 70; Plant response rating, Lambsquarters [14, 21]: 80; Lambsquarters plant response rating [14, 24]: 70; Plant response rating, Morningglory [15, 22]: 5; Morningglory plant response rating [15, 23]: 55; Plant response rating, Morningglory [15, 21]: 80; Morningglory plant response rating [15, 24]: 65; Plant response rating, Galium [16, 22]: 30; Galium plant response rating [16, 23]: 80; Plant response rating, Galium [16, 21]: 90; Galium plant response rating [16, 24]: 85
